We go through eight compounds from patent US20250332300A1 (priority 2024, published 2025).

Structures can show the parent of a compound that is named as a salt. Where two headings read alike, the source gives them in different places. Positions of bridges follow the written chain, without caps; N, C: chain ends. Non-standard residues stand in square brackets, D forms with d. Residues, ends and D or L forms follow the SMILES beside them. Trp(5-OH) = N[C@@H](Cc1c[nH]c2ccc(O)cc12)C(=O)O; NMePhe(4-F) = CN[C@@H](Cc1ccc(F)cc1)C(=O)O; NMehPhe = CN[C@@H](CCc1ccccc1)C(=O)O; NMeE = CN[C@@H](CCC(=O)O)C(=O)O; Aad = N[C@@H](CCCC(=O)O)C(=O)O; Gly(cPr) = N[C@H](C(=O)O)C1CC1; NMehCys = CN[C@@H](CCS)C(=O)O; NMeK = CN[C@@H](CCCCN)C(=O)O; NMeDap = CN[C@@H](CN)C(=O)O; NMeS = CN[C@@H](CO)C(=O)O; Dap = NC[C@H](N)C(=O)O

Common to all, as to format: binding
Test [1] addresses T1, human HER2 (23-652) (Homo sapiens, UniProt P04626). Kind of test: TR-FRET competition assay for peptide potency, human HER2. More on the design: towards human HER2 (23-652) and mouse HER2 (23-653); made in house; host or cells: mammalian cells. On the technique in general: TR-FRET usually uses a lanthanide donor and a delayed reading to cut background.
The target in test [2] is T2, mouse HER2 (23-653) (Mus musculus, UniProt P70424). Kind of test: Surface plasmon resonance (SPR) for assessment of peptide affinity, mouse HER2. Also on record: mouse HER2 (23-653) using a Cy5 labeled peptide as a probe; made in house. From the text:
Each protein was immobilized either onto a SA sensorchip (Cytiva, BR-1005-31) or CM5 sensorchip (Cytiva, BR-1005-30) to a density of 800-2000 RU.
For orientation: In SPR one partner is held on a chip, and binding of the other changes the refractive index at the surface.

The target in test [3] is T1, human HER2 (23-652). The experiment in a line: Surface plasmon resonance (SPR) for assessment of peptide affinity, human HER2. More on the design: towards human HER2 (23-652) and mouse HER2 (23-653); made in house. Put shortly: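 Binding kinetics fitted from sensorgrams with 280 s peptide association then 3000 s dissociation (30 uL/min), using HER2 (23-652) either directly immobilized (SA/CM5) or anti-Fc-captured; 3 M magnesium chloride used for regeneration.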

The target of test [4] is T2, mouse HER2 (23-653). Kind of test: TR-FRET competition assay for peptide potency, mouse HER2. Also on record: mouse HER2 (23-653) using a Cy5 labeled peptide as a probe; made in house; host or cells: mammalian cells. The following applies: 0.1 nM mouse HER2, 24 h incubation.
Setting [5] is: SPR, mouse HER2 extracellular domain, 25° C., 1:1 binding model, read-out: moHER2-SPR-ONC KD.
The mark [6] stands for this setting: SPR, human HER2 extracellular domain, 25° C., 1:1 binding model, read-out: huHER2-SPR-ONC KD.
Where [7] appears, read: TR-FRET competition with Cy5 labeled peptide probe, read-out: moHER2 TR-FRET IC50.
Where [8] appears, read: huHER2 TR-FRET IC50, TR-FRET competition with Cy5 labeled peptide probe, 0.1 nM human HER2, 24 h incubation.
The mark [9] stands for this setting: moHER2 TR-FRET IC50, TR-FRET competition with Cy5 labeled peptide probe.
[10] abbreviates: TR-FRET competition with Cy5 labeled peptide probe, 0.1 nM human HER2, 24 h incubation, read-out: huHER2 TR-FRET IC50.

Regarding `CC(=O)N[C@H]1CCC(=O)NC[C@@H](C(=O)N(C)[C@@H](Cc2ccc(F)cc2)C(N)=O)N(C)C(=O)[C@H](C2CC2)NC(=O)[C@H](Cc2c[nH]c3ccccc23)NC(=O)[C@H](Cc2c[nH]c3ccc(O)cc23)NC(=O)[C@H](CO)N(C)C(=O)[C@H](CCc2ccccc2)N(C)C(=O)[C@H](CCCC(=O)O)NC(=O)[C@H](Cc2ccc(O)cc2)NC1=O` [Example A27, 4-((2S,5S,8S,11S,14S,17S,20S,23S,29S)-17-((1H-indol-3-yl)methyl)-29-acetamido-23-(((S)-1-amino-3-(4-fluorophenyl)-1-oxopropan-2-yl)(methyl)carbamoyl)-20-cyclopropyl-14-((5-hydroxy-1H-indol-3-yl)methyl)-2-(4-hydroxybenzyl)-11-(hydroxymethyl)-7,10,22-trimethyl-3,6,9,12,15,18,21,26,30-nonaoxo-8-phenethyl-1,4,7,10,13,16,19,22,25-nonaazacyclotriacontan-5-yl)butanoic acid] (Ac-EY[Aad][NMehPhe][NMeS][Trp(5-OH)]W[Gly(cPr)][NMeDap][NMePhe(4-F)]-NH2; lactam 1-9), the IC50 in test [1] (read-out: huHER2 TR-FRET IC50) came to 0.391 µM; in test [4] (setting [7]) it was 0.627 µM. Further, the Kd turned out to be 0.21 µM in test [2] (setting [5]) and 0.248 µM in test [3] (setting [6]).

For the compound `COCCOCCOCCOCCOCCOCCOCCOCCOCCOCCOCCOCCC(=O)N[C@H]1CCCC(=O)NC[C@@H](C(=O)N(C)[C@@H](Cc2ccc(F)cc2)C(=O)N[C@@H](CCCCNC(=O)c2ccc([N+](C)(C)C)nc2)C(N)=O)N(C)C(=O)[C@H](C2CC2)NC(=O)[C@H](Cc2c[nH]c3ccccc23)NC(=O)[C@H](Cc2c[nH]c3ccc(O)cc23)NC(=O)[C@H](CCCCNC(C)=O)N(C)C(=O)[C@H](CCc2ccccc2)N(C)C(=O)[C@H](CO)NC(=O)[C@H](Cc2ccc(O)cc2)NC1=O` [Example F4, TFA salt], the figures for the IC50 in test [1] (setting [8]) and in test [4] (setting [9]) were below 0.0001 µM and 0.0003 µM, respectively. The Kd was 0.0001 µM in test [2] and below 0.0001 µM in test [3].

Consider `CN1C(=O)[C@H](CO)NC(=O)[C@H](Cc2ccc(O)cc2)NC(=O)[C@@H](N)CC(=O)NC[C@@H](C(=O)N(C)[C@@H](Cc2ccc(F)cc2)C(N)=O)N(C)C(=O)[C@H](C2CC2)NC(=O)[C@H](Cc2c[nH]c3ccccc23)NC(=O)[C@H](Cc2c[nH]c3ccc(O)cc23)NC(=O)[C@H](CO)N(C)C(=O)[C@@H]1CCc1ccccc1` [Example A37, (3S,6S,9S,12S,15S,18S,21S,24S,27S)-9-((1H-indol-3-yl)methyl)-27-amino-N-((S)-1-amino-3-(4-fluorophenyl)-1-oxopropan-2-yl)-6-cyclopropyl-12-((5-hydroxy-1H-indol-3-yl)methyl)-24-(4-hydroxybenzyl)-15,21-bis(hydroxymethyl)-N,4,16,19-tetramethyl-5,8,11,14,17,20,23,26,29-nonaoxo-18-phenethyl-1,4,7,10,13,16,19,22,25-nonaazacyclononacosane-3-carboxamide TFA salt] (H-DYS[NMehPhe][NMeS][Trp(5-OH)]W[Gly(cPr)][NMeDap][NMePhe(4-F)]-NH2; lactam 1-9), for which the IC50 in test [1] (setting [8]) is 0.81 µM; in test [4] (setting [9]), above 1 µM. Also, the values for the Kd in test [2] and in test [3] were 0.213 µM and 0.452 µM, respectively.

In the case of `CC(=O)NCCCC[C@H]1C(=O)N[C@@H](Cc2c[nH]c3ccc(O)cc23)C(=O)N[C@@H](Cc2c[nH]c3ccccc23)C(=O)N[C@@H](C2CC2)C(=O)N(C)[C@H](C(=O)N(C)[C@@H](Cc2ccc(F)cc2)C(=O)N[C@@H](CCCCNC(=O)CN2CCN(CC(=O)O)CCN(CC(=O)O)CCN(CC(=O)O)CC2)C(N)=O)CNC(=O)CCC[C@H](NC(=O)CO)C(=O)N[C@@H](Cc2ccc(O)cc2)C(=O)N[C@@H](CO)C(=O)N(C)[C@@H](CCc2ccccc2)C(=O)N1C` [Example C15], the values for the IC50 in test [1] (setting [10]) and in test [4] (setting [7]) were below 0.0001 µM and 0.0002 µM, respectively. For the same compound, the dissociation constant (Kd) in test [2] (setting [5]) and in test [3] (setting [6]) was below 0.0001 µM throughout.

Consider `CC(=O)NCCCC[C@H]1C(=O)N[C@@H](Cc2c[nH]c3ccc(O)cc23)C(=O)N[C@@H](Cc2c[nH]c3ccccc23)C(=O)N[C@@H](C2CC2)C(=O)N(C)[C@H](C(=O)N(C)[C@@H](Cc2ccc(F)cc2)C(=O)N[C@@H](CCCCNC(=O)CN2CCN(CC(=O)O)CCN(CC(=O)O)CCN(CC(=O)O)CC2)C(N)=O)CNC(=O)CCC[C@H](NC(=O)CCC(=O)O)C(=O)N[C@@H](Cc2ccc(O)cc2)C(=O)N[C@@H](CO)C(=O)N(C)[C@@H](CCc2ccccc2)C(=O)N1C` [Example C11], for which the IC50 in test [1] (setting [10]) was below 0.0001 µM; in test [4] (setting [7]) it was 0.0001 µM. Also, the Kd in test [2] (setting [5]) and in test [3] (setting [6]) was below 0.0001 µM each time.

Regarding `CC(=O)N[C@H]1CCCC(=O)NC[C@@H](C(=O)N(C)[C@@H](Cc2ccc(F)cc2)C(=O)N[C@@H](CCCCNC(=O)CN2CCN(CC(=O)O)CCN(CC(=O)O)CCN(CC(=O)O)CC2)C(N)=O)N(C)C(=O)[C@H]([C@H](C)O)NC(=O)[C@H](Cc2c[nH]c3ccccc23)NC(=O)[C@H](Cc2c[nH]c3ccc(O)cc23)NC(=O)[C@H](CCCCNC(=O)CCO)N(C)C(=O)[C@H](CCc2ccccc2)N(C)C(=O)[C@H](CO)NC(=O)[C@H](Cc2ccc(O)cc2)NC1=O` [Example B7], the IC50 is 0.0004 µM in test [1] (read-out: huHER2 TR-FRET IC50) and 0.0013 µM in test [4] (setting [7]). The figures for the Kd in test [2] (setting [5]) and in test [3] (setting [6]) were 0.0008 µM and 0.0004 µM, respectively.

Take `CC(=O)NCCCC[C@H]1C(=O)N[C@@H](Cc2c[nH]c3ccc(O)cc23)C(=O)N[C@@H](Cc2c[nH]c3ccccc23)C(=O)N[C@@H](C2CC2)C(=O)N(C)[C@H](C(=O)N(C)[C@@H](Cc2ccc(F)cc2)C(N)=O)CCSSC[C@H](N)C(=O)N[C@@H](Cc2ccc(O)cc2)C(=O)N[C@@H](CO)C(=O)N(C)[C@@H](CCc2ccccc2)C(=O)N1C` [Example A56, (5S,8S,11S,14S,17S,20S,23S,26S,29R)-11-((1H-indol-3-yl)methyl)-17-(4-acetamidobutyl)-29-amino-N-((S)-1-amino-3-(4-fluorophenyl)-1-oxopropan-2-yl)-8-cyclopropyl-14-((5-hydroxy-1/-indol-3-y1)methyl)-26-(4-hydroxybenzyl)-23-(hydroxymethyl)-N,6,18,21-tetramethyl-7,10,13,16,19,22,25,28-octaoxo-20-phenethyl-1,2-dithia-6,9,12,15,18,21,24,27-octaazacyclotriacontane-5-carboxamide TFA salt] (H-CYS[NMehPhe][NMeK](Ac)[Trp(5-OH)]W[Gly(cPr)][NMehCys][NMePhe(4-F)]-NH2; disulfide 1-9): the IC50 in test [1] (read-out: huHER2 TR-FRET IC50) is 0.229 µM; in test [4] (setting [7]), 0.755 µM. The Kd in test [2] (setting [5]) was 0.413 µM; in test [3] (setting [6]), 0.443 µM.

Take `CC(=O)N[C@H]1CNC(=O)CC[C@@H](C(=O)N(C)[C@@H](Cc2ccc(F)cc2)C(N)=O)N(C)C(=O)[C@H](C2CC2)NC(=O)[C@H](Cc2c[nH]c3ccccc23)NC(=O)[C@H](Cc2c[nH]c3ccc(O)cc23)NC(=O)[C@H](CO)N(C)C(=O)[C@H](CCc2ccccc2)N(C)C(=O)[C@H](CO)NC(=O)[C@H](Cc2ccc(O)cc2)NC1=O` [Example A19, (3S,6S,9S,12S,15S,18S,21S,24S,30S)-6-((1H-indol-3-yl)methyl)-24-acetamido-N-((S)-1-amino-3-(4-fluorophenyl)-1-oxopropan-2-yl)-3-cyclopropyl-9-((5-hydroxy-1H-indol-3-yl)methyl)-21-(4-hydroxybenzyl)-12,18-bis(hydroxymethyl)-N,1,13,16-tetramethyl-2,5,8,11,14,17,20,23,27-nonaoxo-15-phenethyl-1,4,7,10,13,16,19,22,26-nonaazacyclotriacontane-30-carboxamide] (Ac-[Dap]YS[NMehPhe][NMeS][Trp(5-OH)]W[Gly(cPr)][NMeE][NMePhe(4-F)]-NH2; lactam 1-9): the IC50 in test [1] (read-out: huHER2 TR-FRET IC50) and in test [4] (setting [7]) was above 1 µM each time. Further, the “moHER2-SPR-ONC KD” value in test [2] (SPR, mouse HER2 extracellular domain, 25° C., 1:1 binding model) was “no binding*”. In addition, the “huHER2-SPR-ONC KD” value in test [3] (SPR, human HER2 extracellular domain, 25° C., 1:1 binding model) is recorded as “no binding*”.

The IC50 is the concentration at which inhibition is half-maximal. As usually defined, the Kd is the concentration at which binding is half-saturated.
